Results on 7 compounds are retold here after ChEMBL document CHEMBL3124938, “Synthesis and biological evaluation of positron emission tomography radiotracers targeting serotonin 4 receptors in brain: [18F]MNI-698 and [18F]MNI-699” (Bioorg Med Chem Lett, 2013).

pKd, pKi: −log10 of the molar value.

The nature of data set [1]: Drug uptake in rhesus monkey cerebellum at 166.6 +/- 11.9 MBq, iv by PET analysis. The class given is ADME, organism-based, Macaca mulatta. Particulars: in vivo; call rule not given here.
Data set [2] can be described thus: Standardized uptake value ratio in rhesus monkey caudate at 166.6 +/- 11.9 MBq, iv by PET analysis. In kind it is ADME, organism-based, Macaca mulatta. The settings on record: in vivo.
Data set [3] in a line: Drug uptake in rhesus monkey putamen at 166.6 +/- 11.9 MBq, iv by PET analysis. In kind it is ADME, organism-based, Macaca mulatta. Particulars: in vivo.
The nature of data set [4]: Standardized uptake value ratio in rhesus monkey globus pallidus at 166.6 +/- 11.9 MBq, iv by PET analysis. The class given is ADME, organism-based, Macaca mulatta. Particulars: in vivo.
For data set [5], the system named is Striatum. The experiment in a line: Drug uptake in rhesus monkey striatum at 166.6 +/- 11.9 MBq, iv by PET analysis. Particulars: in vivo. The class given is ADME, organism-based, Macaca mulatta.
Data set [6] deals with Hippocampus. As to the kind of experiment: Standardized uptake value ratio in rhesus monkey hippocampus at 166.6 +/- 11.9 MBq, iv by PET analysis. In kind it is ADME, organism-based, Macaca mulatta. The settings on record: in vivo.
The nature of data set [7]: Drug uptake in rhesus monkey temporal cortex at 166.6 +/- 11.9 MBq, iv by PET analysis. In kind it is ADME, organism-based, Macaca mulatta. Particulars: in vivo.
Data set [8] can be described thus: Standardized uptake value ratio in rhesus monkey substantia nigra at 166.6 +/- 11.9 MBq, iv by PET analysis. In kind it is ADME, organism-based, Macaca mulatta. The settings on record: in vivo.
In data set [9] the test system is Hippocampus. As to the kind of experiment: Drug uptake in rhesus monkey hippocampus at 166.6 +/- 11.9 MBq, iv by PET analysis. In kind it is ADME, organism-based, Macaca mulatta. Particulars: in vivo.
A short description of data set [10]: Drug uptake in rhesus monkey occipital cortex at 166.6 +/- 11.9 MBq, iv by PET analysis. The class given is ADME, organism-based, Macaca mulatta. The settings on record: in vivo.
Data set [11] is described as follows: Drug uptake in rhesus monkey parietal cortex at 166.6 +/- 11.9 MBq, iv by PET analysis. In kind it is ADME, organism-based, Macaca mulatta. Particulars: in vivo.
Data set [12] in a line: Standardized uptake value ratio in rhesus monkey putamen at 166.6 +/- 11.9 MBq, iv by PET analysis. In kind it is ADME, organism-based, Macaca mulatta. The settings on record: in vivo.
Data set [13] in a line: Drug uptake in rhesus monkey globus pallidus at 166.6 +/- 11.9 MBq, iv by PET analysis. The class given is ADME, organism-based, Macaca mulatta. Particulars: in vivo.
Data set [14] can be described thus: Drug uptake in rhesus monkey thalamus at 166.6 +/- 11.9 MBq, iv by PET analysis. The settings on record: in vivo. The class given is ADME, organism-based, Macaca mulatta.
Data set [15] is described as follows: Drug uptake in rhesus monkey frontal cortex at 166.6 +/- 11.9 MBq, iv by PET analysis. The class given is ADME, organism-based, Macaca mulatta. The settings on record: in vivo.
Data set [16] in a line: Octanol-buffer partition coefficient, log D of the compound at pH 7.4 by shake flask method. In kind it is physicochemical.
For data set [17], the system named is Striatum. As to the kind of experiment: Standardized uptake value ratio in rhesus monkey striatum at 166.6 +/- 11.9 MBq, iv by PET analysis. Particulars: in vivo. In kind it is ADME, organism-based, Macaca mulatta.
Data set [18] can be described thus: Drug uptake in rhesus monkey caudate at 166.6 +/- 11.9 MBq, iv by PET analysis. The settings on record: in vivo. In kind it is ADME, organism-based, Macaca mulatta.
The test system of data set [19] is Brain. As to the kind of experiment: Drug uptake in rhesus monkey brain at 166.6 +/- 11.9 MBq, iv after 20 mins by PET analysis. Particulars: in vivo. The class given is ADME, organism-based, Macaca mulatta.
A short description of data set [20]: Drug uptake in rhesus monkey substantia nigra at 166.6 +/- 11.9 MBq, iv by PET analysis. Particulars: in vivo. The class given is ADME, organism-based, Macaca mulatta.
For data set [21], the target named is T1, 5-hydroxytryptamine receptor 4 (Rattus norvegicus, UniProt Q62758). As to the kind of experiment: Binding affinity to 5HT4 receptor in rat striatal membranes. In kind it is cell membranes, Striatum, Membrane.
Data set [22] has as its system Rhesus monkey. As to the kind of experiment: Ex vivo receptor occupancy of 5HT4 receptor in rhesus monkey at 0.5 mg/kg. The class given is functional, Macaca mulatta.
Data set [23] has as its target 5-hydroxytryptamine receptor 4 (Cavia porcellus, UniProt O70528). As to the kind of experiment: Binding affinity to 5HT4 receptor in guinea pig distal colon.
The target of data set [24] is Serotonin 4 (5-HT4) receptor (Sus scrofa, UniProt Q6Q253). As to the kind of experiment: Binding affinity to 5HT4 receptor in pig striatal membranes. The class given is cell membranes, Striatum, Membrane.
The target in data set [25] is T1, 5-hydroxytryptamine receptor 4. As to the kind of experiment: Displacement of [3H]GR113808 from 5HT4 receptor in Sprague-Dawley rat striatal membranes after 1 hr by […]. Details: species or system Striatum, Membrane.

T1 sequence (Q62758 whole entry): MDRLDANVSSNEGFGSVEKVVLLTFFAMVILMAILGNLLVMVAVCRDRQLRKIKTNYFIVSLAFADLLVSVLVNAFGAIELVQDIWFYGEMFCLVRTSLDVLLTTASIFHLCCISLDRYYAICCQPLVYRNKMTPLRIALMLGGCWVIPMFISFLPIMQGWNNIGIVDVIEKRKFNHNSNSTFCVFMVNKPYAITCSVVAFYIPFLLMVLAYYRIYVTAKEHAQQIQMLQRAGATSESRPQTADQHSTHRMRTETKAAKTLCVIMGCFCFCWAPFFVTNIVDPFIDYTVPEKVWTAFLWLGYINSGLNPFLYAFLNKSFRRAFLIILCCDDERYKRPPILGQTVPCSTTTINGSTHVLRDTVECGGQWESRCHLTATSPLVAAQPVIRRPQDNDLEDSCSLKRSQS
Serotonin 4 (5-HT4) receptor, sequence (Q6Q253 whole entry): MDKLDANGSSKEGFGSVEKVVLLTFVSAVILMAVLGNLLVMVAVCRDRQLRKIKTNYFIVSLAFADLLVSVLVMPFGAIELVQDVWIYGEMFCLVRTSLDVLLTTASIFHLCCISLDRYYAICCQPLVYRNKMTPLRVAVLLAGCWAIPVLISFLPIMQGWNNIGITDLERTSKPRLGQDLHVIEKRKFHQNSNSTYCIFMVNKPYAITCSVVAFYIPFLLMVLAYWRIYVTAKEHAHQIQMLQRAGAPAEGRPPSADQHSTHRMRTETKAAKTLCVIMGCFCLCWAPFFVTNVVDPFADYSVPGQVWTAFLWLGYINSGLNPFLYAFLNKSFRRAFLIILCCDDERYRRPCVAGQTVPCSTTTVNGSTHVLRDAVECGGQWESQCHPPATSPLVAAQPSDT
5-hydroxytryptamine receptor 4 (Cavia porcellus, UniProt O70528), sequence (O70528 whole entry): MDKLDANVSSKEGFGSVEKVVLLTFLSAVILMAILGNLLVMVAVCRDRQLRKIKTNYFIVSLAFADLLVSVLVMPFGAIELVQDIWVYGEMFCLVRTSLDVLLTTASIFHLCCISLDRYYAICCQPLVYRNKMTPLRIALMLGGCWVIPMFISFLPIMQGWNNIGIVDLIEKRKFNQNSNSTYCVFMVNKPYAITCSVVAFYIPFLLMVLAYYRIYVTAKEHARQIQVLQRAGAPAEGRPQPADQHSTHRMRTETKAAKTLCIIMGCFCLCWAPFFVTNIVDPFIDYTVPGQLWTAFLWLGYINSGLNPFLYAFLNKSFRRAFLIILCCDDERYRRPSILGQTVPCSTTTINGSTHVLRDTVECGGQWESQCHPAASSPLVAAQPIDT

One may read the logD as the decadic logarithm of the distribution of all forms, ionised or not, between an organic phase and buffer at a given pH. For the compound `Nc1c(Cl)cc(C(=O)OCC2CCN(CCC[18F])CC2)c2c1OCCO2`, the Drug uptake result in data set [1], in [3], in data set [5], in [7], in data set [9] and in data set [10] was “Active” throughout. Besides, the Drug uptake result in data set [11] is “Active”; in data set [13] it was “Active”; in [14], “Active”; in [15], “Active”; in data set [18], “Active”; in data set [19], 5.6 %ID. For the same compound, in [20], the Drug uptake result is recorded as “Active”. The SUV in [2], in data set [4], in data set [6], in data set [8], in data set [12] and in data set [17] was 3 in each case. The same compound had a pH-dependent lipophilicity (logD) in data set [16] of 1.4.
In general, pKd refers to −log10 of the Kd, conventionally taken in molar units. `CCCCN1CCC(COC(=O)c2cc(I)c(N)c3c2OCCO3)CC1` gave a negative-log Kd (pKd) in [21] of 9.52.
`Nc1c(Cl)cc(C(=O)OCC2CCN(CC[18F])CC2)c2c1OCCO2`: the Drug uptake result in data set [1], in data set [3], in data set [5], in data set [7], in [9] and in data set [10] was “Active” throughout. Also, the Drug uptake result in data set [11] is “Active”; in data set [13], “Active”; in [14], “Active”; in [15], “Active”; in data set [18], “Active”; in [19], 6.6 %ID. In addition, the Drug uptake result in [20] is given as “Active”. Also, the SUV in data set [2], in data set [4], in data set [6], in data set [8], in [12] and in data set [17] was 3 throughout. Besides, in data set [16], the pH-dependent lipophilicity (logD) was determined as 1.8.
For `CCCCN1CCC(COC(=O)c2cc(Cl)c(N)c3c2OCCO3)CC1`, in [22], the Activity came to 93%. In data set [23], the pKd is 10.70.
Regarding `CN1CCC(COC(=O)c2cc(Cl)c(N)c3c2OCCO3)CC1`, the pKd is 9.52 in data set [21] and 10.10 in [24].
The term pKi denotes the Ki on a negative log10 scale, so that one unit is a factor of ten. The compound `Nc1c(Cl)cc(C(=O)OCC2CCN(CCCF)CC2)c2c1OCCO2` showed a pKi in data set [25] of 10.15.
`Nc1c(Cl)cc(C(=O)OCC2CCN(CCF)CC2)c2c1OCCO2` gave a pKi in data set [25] of 9.70.
